# Values joined by “and” are separate entries in the source; they are usually repeats but may differ in a detail not shown here. Equal values may be shown once. “Also recorded” adds a separate entry of the source. Where a name gives a salt, the structure may show the parent alone.
# Tests used:
# Gammarus pulex [1] = test: in vivo; settings: for BCFss: steady-state BCF estimation, 48 h
# Experimental: (§1) Individual adult organisms (n = 25), both male and female (>5 mg wet weight) were placed in Pyrex glass beakers. G. pulex were carefully transferred to beakers using blunt forceps to avoid any harm to the organisms before exposure. Each beaker contained 25 organisms in 200 mL of exposure media (AFW and test compound). […] All exposure media contained <0.001% of organic solvent (methanol). A total of 300 organisms were used per compound exposure and were sampled for n = 3 per time-point. […] These were subsequently analysed for background contamination. […] Each animal specimen was rinsed with ultra-pure water and then frozen at −20 °C.
# (§2) Water samples collected from exposure experiments were filtered using Whatman filters (0.2 μM) and directly injected onto the LC-MS/MS for analysis. For G. pulex, A mass of 50 mg of lyophilised and ground material was extracted by glass bead pulverisation in 5 mL of acetonitrile and diluted with 100 mL of ammonium acetate buffer (10 mM) for loading onto Waters HLB solid phase extraction (SPE) cartridges (6 cc, 200 mg sorbent).
# (§3) Briefly, separations were performed on an Agilent HP1100 LC system configured with a Waters SunFire reversed-phase C18 column (150 mm × 2.1 mm, 2.5 μM particle size). […] Detection was performed using a Waters Quattro triple quadrupole mass spectrometer with electrospray ionisation operated in positive and negative polarity switching mode. Quantification of analytes was performed using 3-point internal standard matrix-matched calibration using the peak area ratio of non-labelled analyte (precursor range: 50–300 ng g^−1, biotransformation product range: 50–150 ng g^−1) to the stable isotope labelled internal standard (SIL-IS) (100 ng g^−1).
# (§4) Herein, the authors define BCFtotal as the summation of the BCF of both parent/precursor and biotransformation products (i.e. the total body burden). Whereas, BCFparent will be used to describe the BCF determined for the parent compound alone.
# in vivo = settings: both, Gammarus pulex, in vivo, G. pulex; for concentration at 6 h: 6h Mean; for concentration at 24 h: 24h Mean
# Experimental: as §1, §2, §3, §4
# [2] = for stability of aqueous pharmaceutical concentration: across the exposure period; for Concentration, 24 h: exposure media after 24 h of exposure with Day 1 solution; for Concentration, 24 h / Concentration, Day 1 (initial pharmaceutical concentration on day 1): n = 3; for Concentration, 48 h: exposure media after 24 h of exposure with Day 2 solution, n = 3 (propranolol n = 2); for Concentration, Day 2 (initial pharmaceutical concentration on day 2): n = 2; for Concentration, Day 1 (initial pharmaceutical concentration on day 1): nominal 1 μg L^−1 (propranolol 10 μg L^−1)
# Experimental: as §1, §2
# [3] = test system: Pimephales notatus and I. punctatus; set-up: method as in Garcia et al., 2012; settings: depending on tissue; ref Garcia et al., 2012; cited from earlier work
# Gammarus fossarum = settings: ref Sordet et al., 2016; cited from earlier work
# [4] = test system: Mytilus galloprovincialis; settings: ref Gomez et al., 2012; cited from earlier work
# G. pulex = settings: ref Miller et al., 2016, cited from earlier work; for SeqBCF, Full Design: sequential BCF; for SeqBCF^a, Full Design: sequential estimation using minitab; for SimBCF, Full Design: simultaneous BCF
# sturgeons = test system: sturgeons; set-up: method as in Hou et al., 2003; settings: ref Hou et al., 2003; cited from earlier work
# Gammarus pulex [5] = test: Biotransformation products in G. pulex after exposure to propranolol, carbamazepine or diazepam (LC-MS/MS); settings: for k2 of biotransformation product: depuration phase; for detection of biotransformation product in G. pulex at 96 h: after exposure to the precursor compound, end of depuration
# Experimental: as §1, §3
# A matrix effect and recovery experiment was performed for these additional analytes before exposures were performed (SI Table S5).
# [6] = both, Gammarus pulex, in vivo, pH 8.19
# [7] = pH 8.19, internal concentration at the end of the uptake phase, 48 h, exposure 1 μg L^−1 (propranolol 10 μg L^−1)
# [8] = pH 8.19, Concentration, n=3, exposure 1 μg L^−1 (warfarin, propranolol 10 μg L^−1)
# [9] = pH 8.19, Concentration, 48h Mean, n=3, exposure 1 μg L^−1 (warfarin, propranolol 10 μg L^−1)
# [10] = k1 re-calculated over time intervals of the uptake phase
# [11] = sequential, Levenberg-Marquardt algorithm, exposure 1 μg L^−1 (warfarin, propranolol 10 μg L^−1)
# [12] = sequential, linear regression on elimination data, exposure 1 μg L^−1 (warfarin, propranolol 10 μg L^−1)
# [13] = simultaneous parametrisation, exposure 1 μg L^−1 (warfarin, propranolol 10 μg L^−1)
structure (smiles),measurement,setting,value
"COCCc1ccc(OCC(O)CNC(C)C)cc1 (racemic) [Metoprolol, (±)-metoprolol (+)-tartrate salt]","BCFparent, Sequential a",Gammarus pulex [1]; [6],39 L/kg
same,"BCFparent, Sequential b",Gammarus pulex [1]; [6],37 L/kg
same,"BCFparent, Simultaneous",Gammarus pulex [1]; [6],17 L/kg
same,"k1 (uptake rate constant), Simultaneous",Gammarus pulex [1]; [6],0.4413
same,"k1, Sequential a",Gammarus pulex [1]; [6],0.2788
same,"k1, Sequential b",Gammarus pulex [1]; [6],0.2855
same,"k2 (depuration rate constant), Simultaneous",Gammarus pulex [1]; [6],0.0259
same,"k2, Sequential a",Gammarus pulex [1]; [6],0.0071
same,"k2, Sequential b",Gammarus pulex [1]; [6],0.0078
same,BCFss,Gammarus pulex [1],9
same,concentration at 48 h,in vivo; [7],≤ 51 ng/g
same,stability of aqueous pharmaceutical concentration,[2],remained stable
same,"Concentration, 24 h",[2],0.72 ng/mL
same,"Concentration, 48 h",[2],0.87 µg/L
same,"Concentration, Day 2 (initial pharmaceutical concentration on day 2)",[2]; exposure media,0.86 ng/mL
same,"Concentration, Day 1 (initial pharmaceutical concentration on day 1)",[2]; exposure media,0.77 ng/mL
"NC(=O)N1c2ccccc2C=Cc2ccccc21 [Carbamazepine, carbamazepine]",BCFparent from the average of k1 over the 48 h time interval,Gammarus pulex [1]; [6],26 L/kg
same,concentration at 6 h,in vivo; [8],8 ng/g
same,concentration at 24 h,in vivo; [8],11 ng/g
same,concentration at 48 h,in vivo; [9],14 ng/g
same,concentration at 48 h,in vivo; [7],≤ 51 ng/g
same,BCF in two species of fish (Pimephales notatus and I. punctatus),[3],< 7 L/kg
same,BCF in Gammarus fossarum,Gammarus fossarum,5 L/kg
same,stability of aqueous pharmaceutical concentration,[2],remained stable
same,"Concentration, 24 h",[2],1.01 ng/mL
same,"Concentration, 48 h",[2],1.07 µg/L
same,"Concentration, Day 2 (initial pharmaceutical concentration on day 2)",[2]; exposure media,1.08 ng/mL
same,"Concentration, Day 1 (initial pharmaceutical concentration on day 1)",[2]; exposure media,1.12 ng/mL
"CN1C(=O)CN=C(c2ccccc2)c2cc(Cl)ccc21 [Diazepam, diazepam]",BCFparent from the average of k1 over the 48 h time interval,Gammarus pulex [1]; [10],48 L/kg
same,"BCFparent, Sequential a",Gammarus pulex [1]; [11],58 L/kg
same,"k1, Sequential a",Gammarus pulex [1]; [11],2.6469
same,"k2, Sequential a",Gammarus pulex [1]; [11],0.046
same,"BCFparent, Sequential b",Gammarus pulex [1]; [12],53 L/kg
same,"k1, Sequential b",Gammarus pulex [1]; [12],3.0917
same,"k2, Sequential b",Gammarus pulex [1]; [12],0.0582
same,"BCFparent, Simultaneous",Gammarus pulex [1]; [13],41 L/kg
same,"k2 (depuration rate constant), Simultaneous",Gammarus pulex [1]; [13],0.2349
same,BCFss,Gammarus pulex [1],45
same,concentration at 6 h,in vivo; [8],31 ng/g
same,concentration at 24 h,in vivo; [8],37 ng/g
same,BCF in marine mussel Mytilus galloprovincialis,[4],51 L/kg
same,"Concentration, 24 h",[2],0.86 ng/mL
same,"Concentration, 48 h",[2],0.89 µg/L
same,"Concentration, Day 2 (initial pharmaceutical concentration on day 2)",[2]; exposure media,1.04 ng/mL
same,"Concentration, Day 1 (initial pharmaceutical concentration on day 1)",[2]; exposure media,1.02 ng/mL
O=C(O)Cc1ccccc1Nc1c(Cl)cccc1Cl [Diclofenac],"SeqBCF, Full Design",G. pulex,21
same,"SeqBCF^a, Full Design",G. pulex,27
same,"SimBCF, Full Design",G. pulex,14
COc1ccc(CC(C)NCC(O)c2ccc(O)c(NC=O)c2)cc1 (stereo not drawn) [Formoterol],"SeqBCF, Full Design",G. pulex,33
same,"SeqBCF^a, Full Design",G. pulex,18
same,"SimBCF, Full Design",G. pulex,14
CN(C)CCCN1c2ccccc2CCc2ccccc21 [Imipramine],"SeqBCF, Full Design",G. pulex,4533
same,"SeqBCF^a, Full Design",G. pulex,3811
same,"SimBCF, Full Design",G. pulex,212
"CC(C)NCC(O)COc1cccc2ccccc12 (stereo not drawn) [Propranolol, Propranolol hydrochloride]","Concentration, 24 h",[2],8.92 ng/mL
same,"Concentration, 48 h",[2],6.41 μg L^−1 and 6.41 ^a μg L^−1
same,decline of aqueous concentration,"[2]; exposure media, after the first 24 h",29%
same,"Concentration, Day 2 (initial pharmaceutical concentration on day 2)",[2]; exposure media,8.98 ng/mL
same,"Concentration, Day 1 (initial pharmaceutical concentration on day 1)",[2]; exposure media,9.22 ng/mL
"Cc1cc(C)nc(NS(=O)(=O)c2ccc(N)cc2)n1 [Sulfamethazine, sulfamethazine]",detection of parent compound in G. pulex samples,Gammarus pulex [1]; exposure 1 μg L^−1,not detected in any sample; also recorded: no peaks were detected
same,BCF in sturgeons,sturgeons,1 L/kg
same,stability of aqueous pharmaceutical concentration,[2],remained stable
same,"Concentration, 24 h",[2],0.99 ng/mL
same,"Concentration, 48 h",[2],0.71 µg/L
same,"Concentration, Day 2 (initial pharmaceutical concentration on day 2)",[2]; exposure media,0.89 ng/mL
same,"Concentration, Day 1 (initial pharmaceutical concentration on day 1)",[2]; exposure media,1.06 ng/mL
"CN1C(=O)C(O)N=C(c2ccccc2)c2cc(Cl)ccc21 (stereo not drawn) [Temazepam, temazepam]",BCFparent from the average of k1 over the 48 h time interval,Gammarus pulex [1]; [10],40 L/kg
same,"BCFparent, Sequential a",Gammarus pulex [1]; [11],41 L/kg
same,"k1, Sequential a",Gammarus pulex [1]; [11],2.8514
same,"k2, Sequential a",Gammarus pulex [1]; [11],0.0702
same,"BCFparent, Sequential b",Gammarus pulex [1]; [12],41 L/kg
same,"k1, Sequential b",Gammarus pulex [1]; [12],2.751
same,"k2, Sequential b",Gammarus pulex [1]; [12],0.0669
same,"BCFparent, Simultaneous",Gammarus pulex [1]; [13],37 L/kg
same,"k1 (uptake rate constant), Simultaneous",Gammarus pulex [1]; [13],4.3326
same,"k2 (depuration rate constant), Simultaneous",Gammarus pulex [1]; [13],0.1186
same,BCFss,Gammarus pulex [1],38
same,concentration at 6 h,in vivo; [8],20 ng/g
same,concentration at 24 h,in vivo; [8],32 ng/g
same,concentration at 48 h,in vivo; [9],38 ng/g
same,concentration at 48 h,in vivo; [7],≤ 51 ng/g
same,stability of aqueous pharmaceutical concentration,[2],remained stable
same,"Concentration, 24 h",[2],0.85 ng/mL
same,"Concentration, 48 h",[2],1.03 µg/L
same,"Concentration, Day 2 (initial pharmaceutical concentration on day 2)",[2]; exposure media,1.17 ng/mL
same,"Concentration, Day 1 (initial pharmaceutical concentration on day 1)",[2]; exposure media,0.96 ng/mL
same,mean concentration of biotransformation product at 48 h (end of the uptake phase),"Gammarus pulex [5]; G. pulex, after exposure to the precursor compound (propranolol 10 μg L^−1, diazepam 1 μg L^−1)",6 ± 3 ng g^−1 dw
same,k2 of biotransformation product,"Gammarus pulex [5]; G. pulex, diazepam exposure",0.016 day⁻¹
same,detection of biotransformation product in G. pulex at 96 h,Gammarus pulex [5],not detectable
CC(C)(C)NCC(O)c1cc(O)cc(O)c1 (stereo not drawn) [Terbutaline],"SeqBCF, Full Design",G. pulex,19
same,"SeqBCF^a, Full Design",G. pulex,22
same,"SimBCF, Full Design",G. pulex,12
COc1cc(Cc2cnc(N)nc2N)cc(OC)c1OC [Trimethoprim],"Concentration, 24 h",[2],1.01 ng/mL
same,"Concentration, 48 h",[2],0.97 µg/L
same,"Concentration, Day 2 (initial pharmaceutical concentration on day 2)",[2]; exposure media,0.99 ng/mL
same,"Concentration, Day 1 (initial pharmaceutical concentration on day 1)",[2]; exposure media,1.09 ng/mL
"NC(=O)N1c2ccccc2C2OC2c2ccccc21 (stereo not drawn) [carbamazepine-10,11-epoxide]",detection of biotransformation product in G. pulex at 96 h,Gammarus pulex [5],not detected
same,detection of biotransformation product in G. pulex,"Gammarus pulex [5]; carbamazepine exposure, 24 h and 48 h",detection
same,quantifiability of biotransformation product in G. pulex,"Gammarus pulex [5]; carbamazepine exposure, signals below signal to noise ratio of 10:1",not quantifiable
O=C1CN=C(c2ccccc2)c2cc(Cl)ccc2N1 [nordiazepam],concentration of biotransformation product (higher than the parent compound),"Gammarus pulex [5]; G. pulex, diazepam exposure",94 ng g^−1 dw
same,k2 of biotransformation product,"Gammarus pulex [5]; G. pulex, diazepam exposure",0.0194 day⁻¹
same,mean concentration of biotransformation product reached,"Gammarus pulex [5]; G. pulex, diazepam exposure, time not stated",64 ± 27 ng g^−1 dw
O=C1Nc2ccc(Cl)cc2C(c2ccccc2)=NC1O (stereo not drawn) [oxazepam],BCF in Gammarus fossarum,Gammarus fossarum,22 L/kg
same,reduction of mean internal concentration over the 48 h depuration period,"Gammarus pulex [5]; G. pulex, diazepam exposure",21 ng g^−1 dw
same,k2 of biotransformation product,"Gammarus pulex [5]; G. pulex, diazepam exposure",0.009 day⁻¹
